In patent US10709706B2, “Nuclear transport modulators and uses thereof” (Karyopharm Therapeutics Inc., priority 2015, dated 2020) one finds IC50 data, which are given here for 23 compounds.

Common to all, as to assay type: cell-based
One test has as its system MM1S cells. Kind of test: MTT cell proliferation assay, MM1S cells. The conditions noted are these: Homo sapiens, MM1.S, MM1S multiple myeloma cells, approximately 64-72 hours, 1 nM to 30 μM. As for the experimental part:
(§1) The MTT cell proliferation assay was used to study the cytotoxic properties of the compounds. The assay was performed according to the method described by Roche Molecular Biochemicals, with minor modifications. The assay is based on the cleavage of the tetrazolium salt, MTT, in the presence of an electron-coupling reagent. The water-insoluble formazan salt produced must be solubilized in an additional step. Cells grown in a 96-well tissue culture plate were incubated with the MTT solution for approximately 4 hours. After this incubation period, a water-insoluble formazan dye formed. After solubilization, the formazan dye was quantitated using a scanning multi-well spectrophotometer (ELISA reader). […] The cells were seeded at 5,000-10,000 cells in each well of 96-well plate in 100 μL of fresh culture medium and were allowed to attach overnight. The stock solutions of the compounds were diluted in 100 μL cell culture medium to obtain eight concentrations of each test compound, ranging from 1 nM to 30 μM. […] All optical densities were measured at 490 nm using a Vmax Kinetic Microplate Reader (Molecular Devices). In most cases, the assay was performed in duplicate and the results were presented as a mean percent inhibition to the negative control±SE. The following formula was used to calculate the percent of inhibition: Inhibition (%)=(1−(ODo/OD))×100.
(§2) The compounds were tested against Z138, MM1S and 3T3 cells. The Z138 cell line is a mature B-cell acute lymphoblastic leukemia cell line derived from a patient with chronic lymphocytic leukemia. The MM1S cell line was established from the peripheral blood of a human multiple myeloma patient. 3T3 cells are standard fibroblast cells; they were originally isolated from Swiss mouse embryo tissue.
Background: Tetrazolium assays rely on reduction of a dye to a coloured formazan, in cell work by metabolically active cells.

Another test relates to Z138 cells. Put plainly: MTT cell proliferation assay, Z138 cells. Conditions: Homo sapiens, Z-138, approximately 64-72 hours, 1 nM to 30 μM. As for the experimental part:
as §1, §2

Another test has as its system 3T3 cells. Put plainly: MTT cell proliferation assay, 3T3 cells. Conditions: Mus musculus, NIH3T3, 3T3 fibroblast cells, approximately 64-72 hours, 1 nM to 30 μM. As to the method:
as §1, §2

As a reminder, the IC50 is the concentration that inhibits the measured activity by half. Read a high IC50 as lower potency. On to `COC(=O)/C(Br)=C\c1nccc(-c2cc(C(F)(F)F)cc(C(F)(F)F)c2)n1` [Compound 108, methyl (E)-3-(4-(3,5-bis(trifluoromethyl)phenyl)pyrimidin-2-yl)-2-bromoacrylate], for which the IC50 in the test with MM1S cells was 5 to 30 µM; in the test on Z138 cells, 5 to 30 µM; in the test on 3T3 cells, greater than 30 µM.

Turning to `O=C(O)/C(=C/c1nccc(-c2cc(C(F)(F)F)cc(C(F)(F)F)c2)n1)c1cncnc1` [Compound 109, (E)-3-(4-(3,5-bis(trifluoromethyl)phenyl)pyrimidin-2-yl)-2-(pyrimidin-5-yl)acrylic acid], the concentration for half-maximal inhibition (IC50) in the test with MM1S cells, with Z138 cells and with 3T3 cells was greater than 30 µM throughout.

With `NC(=O)/C(=C\c1nccc(-c2cc(C(F)(F)F)cc(C(F)(F)F)c2)n1)c1cncnc1` [Compound 110, (Z)-3-(4-(3,5-bis(trifluoromethyl)phenyl)pyrimidin-2-yl)-2-(pyrimidin-5-yl)acrylamide], the 50% inhibitory concentration (IC50) in the test with MM1S cells, in the test with Z138 cells and with 3T3 cells was greater than 30 µM each time.

Regarding `O=C(O)/C(=C/c1ccnc(-c2cc(C(F)(F)F)cc(C(F)(F)F)c2)n1)c1cncnc1` [Compound 111, (E)-3-(2-(3,5-bis(trifluoromethyl)phenyl)pyrimidin-4-yl)-2-(pyrimidin-5-yl)acrylic acid], the 50% inhibitory concentration (IC50) in the test with MM1S cells was 5 to 30 µM; in the test on Z138 cells, greater than 30 µM; in the test on 3T3 cells it was greater than 30 µM.

With `NC(=O)/C(=C/c1ccnc(-c2cc(C(F)(F)F)cc(C(F)(F)F)c2)n1)c1cncnc1` [Compound 112, (E)-3-(2-(3,5-bis(trifluoromethyl)phenyl)pyrimidin-4-yl)-2-(pyrimidin-5-yl)acrylamide], the 50% inhibitory concentration (IC50) is 0.1 to 5 µM with MM1S cells, 0.1 to 5 µM with Z138 cells and greater than 30 µM with 3T3 cells.

Regarding `NC(=O)/C(=C/c1nccc(-c2cc(C(F)(F)F)cc(C(F)(F)F)c2)n1)c1cncnc1` [Compound 113, (E)-3-(4-(3,5-bis(trifluoromethyl)phenyl)pyrimidin-2-yl)-2-(pyrimidin-5-yl)acrylamide], the half-inhibitory concentration (IC50) in the test with MM1S cells, with Z138 cells and in the test with 3T3 cells was greater than 30 µM each time.

As for `NC(=O)/C(=C/c1cncc(-c2cc(C(F)(F)F)cc(C(F)(F)F)c2)n1)c1cncnc1` [Compound 114, (E)-3-(6-(3,5-bis(trifluoromethyl)phenyl)pyrazin-2-yl)-2-(pyrimidin-5-yl)acrylamide], the IC50 with MM1S cells, in the test on Z138 cells and in the test with 3T3 cells was greater than 30 µM each time.

`COC(=O)/C(Br)=C/c1cncc(-c2cc(C(F)(F)F)cc(C(F)(F)F)c2)n1` [Compound 115, methyl (Z)-3-(6-(3,5-bis(trifluoromethyl)phenyl)pyrazin-2-yl)-2-bromoacrylate]: the concentration for half-maximal inhibition (IC50) was 0.1 to 5 µM with MM1S cells, 0.1 to 5 µM with Z138 cells and 5 to 30 µM in the test with 3T3 cells.

`COC(=O)/C(=C/c1cncc(-c2cc(C(F)(F)F)cc(C(F)(F)F)c2)n1)c1cncnc1` [Compound 116, methyl (E)-3-(6-(3,5-bis(trifluoromethyl)phenyl)pyrazin-2-yl)-2-(pyrimidin-5-yl)acrylate]: the results for the concentration for half-maximal inhibition (IC50) in the test with MM1S cells, in the test with Z138 cells and in the test on 3T3 cells were 5 to 30 µM, 5 to 30 µM and greater than 30 µM, respectively.

Consider `O=C(O)/C(=C/c1cncc(-c2cc(C(F)(F)F)cc(C(F)(F)F)c2)n1)c1cncnc1` [Compound 117, (E)-3-(6-(3,5-bis(trifluoromethyl)phenyl)pyrazin-2-yl)-2-(pyrimidin-5-yl)acrylic acid], for which the concentration for half-maximal inhibition (IC50) in the test with MM1S cells, in the test on Z138 cells and with 3T3 cells was greater than 30 µM throughout.

As for `Cc1ccc(/C(=C\c2ccnc(-c3cc(C(F)(F)F)cc(C(F)(F)F)c3)n2)C(N)=O)cc1F` [Compound 118, (E)-3-(2-(3,5-bis(trifluoromethyl)phenyl)pyrimidin-4-yl)-2-(3-fluoro-4-methylphenyl)acrylamide], the IC50 in the test with MM1S cells, in the test with Z138 cells and with 3T3 cells was greater than 30 µM throughout.

With `N#Cc1cncc(/C(=C\c2ccnc(-c3cc(C(F)(F)F)cc(C(F)(F)F)c3)n2)C(N)=O)c1` [Compound 119, (E)-3-(2-(3,5-bis(trifluoromethyl)phenyl)pyrimidin-4-yl)-2-(5-cyanopyridin-3-yl)acrylamide], the 50% inhibitory concentration (IC50) was 0.1 to 5 µM in the test on MM1S cells, 0.1 to 5 µM in the test with Z138 cells and greater than 30 µM in the test on 3T3 cells.

On to `NC(=O)/C(=C/c1ccnc(-c2cc(C(F)(F)F)cc(C(F)(F)F)c2)n1)c1ccccc1` [Compound 120, (E)-3-(2-(3,5-bis(trifluoromethyl)phenyl)pyrimidin-4-yl)-2-phenylacrylamide], for which the half-maximal inhibitory concentration (IC50) in the test on MM1S cells, with Z138 cells and in the test on 3T3 cells was greater than 30 µM throughout.

With `NC(=O)/C(=C/c1ccnc(-c2cc(C(F)(F)F)cc(C(F)(F)F)c2)n1)c1cncc(F)c1` [Compound 121, (E)-3-(2-(3,5-bis(trifluoromethyl)phenyl)pyrimidin-4-yl)-2-(5-fluoropyridin-3-yl)acrylamide], the concentration for half-maximal inhibition (IC50) in the test with MM1S cells is 0.1 to 5 µM; in the test with Z138 cells, greater than 30 µM; in the test on 3T3 cells, greater than 30 µM.

As for `NC(=O)/C(=C/c1ccnc(-c2cc(C(F)(F)F)cc(C(F)(F)F)c2)n1)c1ccc(S(=O)(=O)C2CC2)cc1` [Compound 122, (E)-3-(2-(3,5-bis(trifluoromethyl)phenyl)pyrimidin-4-yl)-2-(4-(cyclopropylsulfonyl)phenyl)acrylamide], the IC50 in the test on MM1S cells was 5 to 30 µM; with Z138 cells, 0.1 to 5 µM; in the test on 3T3 cells, greater than 30 µM.

With `NC(=O)/C(=C/c1ccnc(-c2cc(C(F)(F)F)cc(C(F)(F)F)c2)n1)c1csc2ccccc12` [Compound 123, (E)-2-(benzo[b]thiophen-3-yl)-3-(2-(3,5-bis(trifluoromethyl)phenyl)pyrimidin-4-yl)acrylamide], the IC50 with MM1S cells, in the test with Z138 cells and in the test with 3T3 cells was greater than 30 µM in each case.

`Cc1noc(C)c1/C(=C\c1ccnc(-c2cc(C(F)(F)F)cc(C(F)(F)F)c2)n1)C(N)=O` [Compound 124, (E)-3-(2-(3,5-bis(trifluoromethyl)phenyl)pyrimidin-4-yl)-2-(3,5-dimethylisoxazol-4-yl)acrylamide]: the IC50 in the test with MM1S cells, in the test with Z138 cells and with 3T3 cells was greater than 30 µM each time.

As to `N#Cc1ncc(/C(=C\c2ccnc(-c3cc(C(F)(F)F)cc(C(F)(F)F)c3)n2)C(N)=O)cn1` [Compound 125, (E)-3-(2-(3,5-bis(trifluoromethyl)phenyl)pyrimidin-4-yl)-2-(2-cyanopyrimidin-5-yl)acrylamide], the IC50 in the test on MM1S cells is less than 0.1 µM; with Z138 cells it was less than 0.1 µM; with 3T3 cells, greater than 30 µM.

In the case of `NC(=O)/C(=C/c1ccnc(-c2cc(C(F)(F)F)cc(C(F)(F)F)c2)n1)c1ccc(S(=O)(=O)N2CC(F)C2)cc1` [Compound 126, (E)-3-(2-(3,5-bis(trifluoromethyl)phenyl)pyrimidin-4-yl)-2-(4-((3-fluoroazetidin-1-yl)sulfonyl)phenyl)acrylamide], the concentration for half-maximal inhibition (IC50) in the test on MM1S cells, with Z138 cells and with 3T3 cells was greater than 30 µM each time.

As to `CS(=O)(=O)c1ccc(/C(=C\c2ccnc(-c3cc(C(F)(F)F)cc(C(F)(F)F)c3)n2)C(N)=O)cc1` [Compound 127, (E)-3-(2-(3,5-bis(trifluoromethyl)phenyl)pyrimidin-4-yl)-2-(4-(methylsulfonyl)phenyl)acrylamide], the concentration for half-maximal inhibition (IC50) in the test on MM1S cells, in the test with Z138 cells and in the test with 3T3 cells was greater than 30 µM in each case.

Take `NC(=O)/C(=C/c1ccnc(-c2cc(C(F)(F)F)cc(C(F)(F)F)c2)n1)c1ccc(S(=O)(=O)NC2CC2)cc1` [Compound 128, (E)-3-(2-(3,5-bis(trifluoromethyl)phenyl)pyrimidin-4-yl)-2-(4-(N-cyclopropylsulfamoyl)phenyl)acrylamide]: the values for the concentration for half-maximal inhibition (IC50) with MM1S cells, in the test on Z138 cells and in the test with 3T3 cells were 5 to 30 µM, 5 to 30 µM and greater than 30 µM, respectively.

Take `NC(=O)/C(=C/c1ccnc(-c2cc(C(F)(F)F)cc(C(F)(F)F)c2)n1)c1cccc(S(=O)(=O)N2CCOCC2)c1` [Compound 129, (E)-3-(2-(3,5-bis(trifluoromethyl)phenyl)pyrimidin-4-yl)-2-(3-(morpholinosulfonyl)phenyl)acrylamide]: the IC50 with MM1S cells, in the test on Z138 cells and in the test on 3T3 cells was greater than 30 µM each time.

`NC(=O)/C(=C/c1ccnc(-c2cc(C(F)(F)F)cc(C(F)(F)F)c2)n1)c1ccc(S(=O)(=O)N2CC(F)(F)C2)cc1` [Compound 130, (E)-3-(2-(3,5-bis(trifluoromethyl)phenyl)pyrimidin-4-yl)-2-(4-((3,3-difluoroazetidin-1-yl)sulfonyl)phenyl)acrylamide]: the half-maximal inhibitory concentration (IC50) in the test on MM1S cells is 5 to 30 µM; in the test with Z138 cells, greater than 30 µM; in the test on 3T3 cells it was greater than 30 µM.
